# Laboratory results from patent US20200325109A1, “IMINO-UREA DERIVATIVES” (Lunan Pharmaceutical Group Corporation, priority 2017, published 2020).
# Columns and labels:
# [1] = biological target: T1, human indoleamine 2,3-dioxygenase (Homo sapiens, UniProt P14902); experiment: Determination of the activity for inhibiting indoleamine 2,3-dioxygenase and IC50; format: biochemical; conditions: purified human IDO, 200 μM L-tryptophan, 37° C., 60 minutes, pH 6.5
# T1 construct: made in house; host or cells: E. coli
# T1 sequence (P14902 whole entry): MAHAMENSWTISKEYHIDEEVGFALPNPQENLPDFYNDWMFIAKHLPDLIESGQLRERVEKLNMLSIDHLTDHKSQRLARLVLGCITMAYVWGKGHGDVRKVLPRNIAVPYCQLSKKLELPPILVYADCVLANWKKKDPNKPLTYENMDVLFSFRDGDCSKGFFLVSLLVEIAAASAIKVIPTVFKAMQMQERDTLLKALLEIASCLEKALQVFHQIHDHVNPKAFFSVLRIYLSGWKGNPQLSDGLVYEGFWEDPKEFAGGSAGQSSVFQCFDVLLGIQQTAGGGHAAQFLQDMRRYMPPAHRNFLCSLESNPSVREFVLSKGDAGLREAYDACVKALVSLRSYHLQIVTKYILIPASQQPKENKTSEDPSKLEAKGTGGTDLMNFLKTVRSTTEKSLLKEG
# [2] = test system: DC-stimulated T cell proliferation; experiment: DC-stimulated T cell proliferation assay (MLR); format: cell-based, human; conditions: MTT, A570 nm, 72 hours
# Method: The human peripheral blood leukocyte layer was taken and diluted with same volume of 0.01 mol/L PBS. PBMC was routinely isolated with a lymphocyte separation medium, and the cell concentration was adjusted to 3×10^6 ml^−1 in a complete RPMI1640 medium; the cells were added to a 6-well plate, 3 ml per well, and cultured in a 5% CO2, 37° C. incubator for 2 hours, washed with PBS for 3 times to remove non-adherent cells, then added with a culture medium containing IL-4 (100 U/ml), GM-CSF (150 ng/ml) and TNF-α (500 U/ml), and then routinely cultured, the medium was changed for half every other day. After 8 days of culture, the cells were used for identification and experiment.
# The human PBMC layer was separated by the method in the step 1. The macrophages were removed by the adherence method, the B cells were removed by the nylon wool fiber syringe method, and the obtained T cells were adjusted to a cell concentration of 1×10^6 cells/ml.
# The mature DCs with a purity of 99% were centrifuged, added with RPMI1640 to adjust the cell concentration to 1×10^5, 4×10^4, 2×10^4/ml, and added to a 96-well plate, two wells for each concentration, 100 μl/well.
# T cells were added to DCs of each of the above drug-added groups, 100 μl/well, cultured in a 5% CO2, 37° C. incubator for 72 hours; for each well, 100 μl of the culture solution was gently sucked out 6 hours before the end of the culture, and 10 μl of MTT (5 mg/ml) was added, further cultured in incubator for 6 hours, then 100 μl of 0.01 mol/L HCl-10% SDS was added, stood at 37° C. overnight, and the absorbance value (A570 nm) was determined by a microplate to show the T cell proliferation level.
# [3] = mouse, in vivo
# [4] = test system: mice with Alzheimer (AD model); experiment: Morris water maze detection of behavioral changes in mice with Alzheimer; format: in vivo; conditions: for Number of stays / Time of stay: spatial probe test, sixth day
# Method: Mouse behavioral analysis was performed using a Morris water maze (Ethovision XT monitoring and analysis software, Morris water maze system, from Noldus, Netherlands). The water maze test process was divided into two parts, hidden platform acquisition test for consecutive 5 days, and spatial probe test on the sixth day, the mice were administered according to the test groups and the design doses before each test. The mice were trained 4 times a day, each time the mice were dived in different areas, the water maze was divided into areas 1, 2, 3 and 4 according to the south, east, north and west, and the platform was the 5th area located in the 4th area. […] The hidden platform acquisition test was used to detect the learning ability of mice, while the spatial probe test was used to detect the spatial memory ability of mice.
# Using the statistical analysis software SPSS16.0, the escape latent period of the hidden platform acquisition test was analyzed by variance of multiple measures; and the swimming time in each quadrant and the number of crossing target in the spatial probe test were analyzed by one-way analysis of variance. The data were expressed as mean±standard deviation, and the significant level of difference was set as bilateral P=0.05.
# LLC tumors = experiment: In vivo antitumor activity test, LLC tumors in mice; parameters: Tumor inhibition rate: concentration or dose not given beside the values; conditions: LLC tumors in C57BL6 mice, once per day, 21 days; for Tumor weight: CTX intraperitoneal 150 mg·kg^−1, compounds intragastric; for Tumor inhibition rate: from average tumor weight vs model group
smiles,measurement,setting,value
N=C(N)NCCNc1nonc1/C(=N/O)Nc1ccc(F)c(Br)c1 [Example 3047],IC50,[1],0.037 µM
same,T:DC (absorbance value),[2]; T:DC 10:1,0.864 ± 0.006^##※
same,T:DC (absorbance value),[2]; T:DC 25:1,0.834 ± 0.004^##※
same,T:DC (absorbance value),[2]; T:DC 50:1,0.825 ± 0.007^##※
same,Average body weight before test,[3],22 ± 3.4 g
same,Latent period for searching platform in hidden platform test,[4]; 1st Day,52.3 ± 5.2 s
same,Latent period for searching platform in hidden platform test,[4]; 2nd Day,44.0 ± 4.4 s
same,Latent period for searching platform in hidden platform test,[4]; 3th Day,22.1 ± 4.5^##※ s
same,Number of stays,[4]; 4th Area,13.0 ± 1.5^##※ times
same,Time of stay,[4]; 4th Area,25.9 ± 5.2^##※ s
same,Latent period for searching platform in hidden platform test,[4]; 4th Day,10.5 ± 5.7^##※ s
same,Number of stays,[4]; 5th Area (platform),3.8 ± 0.6^##※ times
same,Time of stay,[4]; 5th Area (platform),5.9 ± 0.7^##※ s
same,Latent period for searching platform in hidden platform test,[4]; 5th Day,5.4 ± 6.0^##※※ s
same,Tumor weight,LLC tumors,0.370 ± 0.209^##※ g
same,Tumor inhibition rate,LLC tumors,75.6%
N=C(N)NCCCNc1nonc1/C(=N/O)Nc1ccc(F)c(Br)c1 [Example 3048],IC50,[1],0.02 µM
CNC(=N)NCCNc1nonc1/C(=N/O)Nc1ccc(F)c(Br)c1 [Example 3049],IC50,[1],0.022 µM
CC(C)(C)OC(=O)N=C(NCCNc1nonc1/C(=N/O)Nc1ccc(F)c(Br)c1)NC(=O)OC(C)(C)C [Example 3051],IC50,[1],0.023 µM
CC(C)(C)OC(=O)N=C(N)NCCCNc1nonc1/C(=N/O)Nc1ccc(F)c(Br)c1 [Example 3053],IC50,[1],0.016 µM
"NS(=O)(=O)NCCNc1nonc1C(=Nc1ccc(F)c(Br)c1)NO [INCB024360, reference compound]",T:DC (absorbance value),[2]; T:DC 10:1,0.830 ± 0.002
same,T:DC (absorbance value),[2]; T:DC 25:1,0.804 ± 0.004
same,T:DC (absorbance value),[2]; T:DC 50:1,0.799 ± 0.003
same,Latent period for searching platform in hidden platform test,[4]; 1st Day,53.2 ± 2.3 s
same,Latent period for searching platform in hidden platform test,[4]; 2nd Day,51.4 ± 4.8 s
same,Latent period for searching platform in hidden platform test,[4]; 3th Day,38.6 ± 5.5 s
same,Number of stays,[4]; 4th Area,8.4 ± 1.0 times
same,Time of stay,[4]; 4th Area,16.2 ± 2.4 s
same,Latent period for searching platform in hidden platform test,[4]; 4th Day,28.7 ± 3.9 s
same,Number of stays,[4]; 5th Area (platform),2.1 ± 0.4 times
same,Time of stay,[4]; 5th Area (platform),3.9 ± 0.7 s
same,Latent period for searching platform in hidden platform test,[4]; 5th Day,19.9 ± 6.7 s
same,Tumor weight,LLC tumors,0.653 ± 0.178 g
same,Tumor inhibition rate,LLC tumors,56.9%
CCC(=O)NC(=N)NCCNc1nonc1/C(=N/O)Nc1ccc(F)c(Br)c1 [XSD3-052],IC50,[1],0.343 µM
N=C(NCCNc1nonc1/C(=N/O)Nc1ccc(F)c(Br)c1)NS(=O)(=O)c1ccccc1 [XSD3-058],IC50,[1],0.057 µM
same,T:DC (absorbance value),[2]; T:DC 10:1,0.880 ± 0.003
same,T:DC (absorbance value),[2]; T:DC 25:1,0.849 ± 0.002
same,T:DC (absorbance value),[2]; T:DC 50:1,0.831 ± 0.002
same,body weight compared with the model group,[3],no significant difference in body weight
same,Latent period for searching platform in hidden platform test,[4]; 1st Day,45.3 ± 3.7 s
same,Latent period for searching platform in hidden platform test,[4]; 2nd Day,41.3 ± 3.2 s
same,Latent period for searching platform in hidden platform test,[4]; 3th Day,25.4 ± 4.6 s
same,Number of stays,[4]; 4th Area,13.3 ± 1.8 times
same,Time of stay,[4]; 4th Area,25.2 ± 4.2 s
same,Latent period for searching platform in hidden platform test,[4]; 4th Day,15.5 ± 4.9 s
same,Number of stays,[4]; 5th Area (platform),3.5 ± 0.9 times
same,Time of stay,[4]; 5th Area (platform),5.9 ± 0.6 s
same,Latent period for searching platform in hidden platform test,[4]; 5th Day,7.3 ± 6.1 s
same,Tumor weight,LLC tumors,0.400 ± 0.112 g
same,Tumor inhibition rate,LLC tumors,72.3%
N/C(=N\C(=O)C1CC1)NCCNc1nonc1/C(=N/O)Nc1ccc(F)c(Br)c1 [XSD3-065],IC50,[1],0.118 µM
N/C(=N\C(=O)C1CCC1)NCCNc1nonc1/C(=N/O)Nc1ccc(F)c(Br)c1 [XSD3-066],IC50,[1],0.132 µM
N/C(=N\C(=O)C1CCCC1)NCCNc1nonc1/C(=N/O)Nc1ccc(F)c(Br)c1 [XSD3-067],IC50,[1],0.142 µM
N/C(=N\C(=O)C1CCCCC1)NCCNc1nonc1/C(=N/O)Nc1ccc(F)c(Br)c1 [XSD3-068],IC50,[1],0.539 µM
N/C(=N\C(=O)CC1CC1)NCCNc1nonc1/C(=N/O)Nc1ccc(F)c(Br)c1 [XSD3-069],IC50,[1],0.345 µM
N/C(=N/C(=O)CC1CCC1)NCCNc1nonc1/C(=N/O)Nc1ccc(F)c(Br)c1 [XSD3-070],IC50,[1],0.345 µM
N/C(=N\C(=O)CC1CCCCC1)NCCNc1nonc1/C(=N/O)Nc1ccc(F)c(Br)c1 [XSD3-072],IC50,[1],0.502 µM
N/C(=N\S(=O)(=O)c1ccccc1)NCCCNc1nonc1/C(=N/O)Nc1ccc(F)c(Br)c1 [XSD3-074],IC50,[1],0.063 µM
N/C(=N\C(=O)C1CCCCC1)NCCCNc1nonc1/C(=N/O)Nc1ccc(F)c(Br)c1 [XSD3-078],IC50,[1],0.145 µM
N/C(=N\C(=O)C1CCC1)NCCCNc1nonc1/C(=N/O)Nc1ccc(F)c(Br)c1 [XSD3-079],IC50,[1],0.095 µM
same,T:DC (absorbance value),[2]; T:DC 10:1,0.876 ± 0.004
same,T:DC (absorbance value),[2]; T:DC 25:1,0.850 ± 0.003
same,T:DC (absorbance value),[2]; T:DC 50:1,0.837 ± 0.004
same,body weight compared with the model group,[3],no significant difference in body weight
same,Latent period for searching platform in hidden platform test,[4]; 1st Day,40.5 ± 5.5 s
same,Latent period for searching platform in hidden platform test,[4]; 2nd Day,39.3 ± 44 s
same,Latent period for searching platform in hidden platform test,[4]; 3th Day,20.3 ± 4.2 s
same,Number of stays,[4]; 4th Area,14.4 ± 1.3 times
same,Time of stay,[4]; 4th Area,26.7 ± 3.3 s
same,Latent period for searching platform in hidden platform test,[4]; 4th Day,17.7 ± 5.2 s
same,Number of stays,[4]; 5th Area (platform),3.9 ± 0.5 times
same,Time of stay,[4]; 5th Area (platform),5.8 ± 0.7 s
same,Latent period for searching platform in hidden platform test,[4]; 5th Day,9.9 ± 5.2 s
same,Tumor weight,LLC tumors,0.384 ± 0.092 g
same,Tumor inhibition rate,LLC tumors,73.4%
N/C(=N\C(=O)C1CCCC1)NCCCNc1nonc1/C(=N/O)Nc1ccc(F)c(Br)c1 [XSD3-080],IC50,[1],0.087 µM
N/C(=N\C(=O)CC1CC1)NCCCNc1nonc1/C(=N/O)Nc1ccc(F)c(Br)c1 [XSD3-081],IC50,[1],0.089 µM
N/C(=N\C(=O)CC1CCC1)NCCCNc1nonc1/C(=N/O)Nc1ccc(F)c(Br)c1 [XSD3-082],IC50,[1],0.101 µM
N/C(=N\C(=O)CC1CCCCC1)NCCCNc1nonc1/C(=N/O)Nc1ccc(F)c(Br)c1 [XSD3-084],IC50,[1],0.16 µM
N/C(=N\S(=O)(=O)CC1CCCCC1)NCCCNc1nonc1/C(=N/O)Nc1ccc(F)c(Br)c1 [XSD3-088],IC50,[1],0.072 µM
N/C(=N\S(=O)(=O)CC1CCCCC1)NCCNc1nonc1/C(=N/O)Nc1ccc(F)c(Br)c1 [XSD3-089],IC50,[1],0.067 µM
N/C(=N\C(=O)Cc1ccccc1)NCCNc1nonc1/C(=N/O)Nc1ccc(F)c(Br)c1 [XSD3-092],IC50,[1],0.399 µM
N/C(=N\C(=O)Cc1ccc(Cl)cc1)NCCCNc1nonc1/C(=N/O)Nc1ccc(F)c(Br)c1 [XSD3-093-1],IC50,[1],0.056 µM
N/C(=N\C(=O)Cc1ccc(F)cc1)NCCCNc1nonc1/C(=N/O)Nc1ccc(F)c(Br)c1 [XSD3-093-2],IC50,[1],0.061 µM
COc1ccc(CC(=O)/N=C(\N)NCCCNc2nonc2/C(=N/O)Nc2ccc(F)c(Br)c2)cc1 [XSD3-093-3],IC50,[1],0.076 µM
N/C(=N\C(=O)Cc1ccccc1)NCCCNc1nonc1/C(=N/O)Nc1ccc(F)c(Br)c1 [XSD3-093],IC50,[1],0.044 µM
